The results in this text go back to US12364674B2, “Compounds and combinations thereof for treating neurological and psychiatric conditions” (priority 2022, dated 2025).

The conditions of data set [1]: human, in vivo.
For data set [2] the following is noted: human, in vivo. The source holds these as a separate data set.
Data set [3] is described as follows: Example 2: pharmacokinetics of the subject combination in CYP2D6 poor metabolizers. Conditions: 3 CYP2D6 poor metabolizers. The source says: Approximately 7 to 10% of Caucasians and 3 to 8% of African Americans lack the capacity to metabolize CYP2D6 substrates and are classified as poor metabolizers.
Data set [4] is described as follows: Example 3: co-administration of paroxetine and the subject combination in healthy volunteers. From the text:
Co-administration of the SSRI paroxetine and the subject combination was studied in 29 healthy volunteers.

Data set [5] can be described thus: Example 1: subject combination in subjects with moderate renal impairment vs matched controls. Conditions: moderate renal impairment (GFR 30-60 mL/min).
The nature of data set [6]: Steady-state pharmacokinetics of dextromethorphan, bupropion and metabolites after administration of the subject combination. To be noted: for changes in AUC and Cmax with dose (dose proportionality): steady state, co-administered with bupropion.
Data set [7] in a line: Example 4: exposure to the 45 mg dextromethorphan hydrobromide/105 mg bupropion hydrochloride tablet in moderate renal impairment (FIG. 1). To be noted: 8 days of twice daily dosing of the tablet.

Where a name gives a salt, the structure may show the parent alone. Read-outs that look alike come from different tables or passages of the source.

For `CC(NC(C)(C)C)C(=O)c1cccc(Cl)c1.Cl` (racemic) [bupropion, (±)-1-(3-chlorophenyl)-2-[(1,1-dimethylethyl)amino]-1-propanone hydrochloride], in data set [1], the “increase of exposure vs matched controls with normal renal function” value was “approximately 2 fold” and the “reduction of clearance vs matched controls with normal renal function” value was 50%. Moreover, in data set [2], the “increase in AUC0-12 (GMR vs matched healthy subjects)” value worked out at 1.80 fold and the “increase in Cmax (GMR vs matched healthy subjects)” value was found to be 1.87 fold.
Regarding `COc1ccc2c(c1)[C@]13CCCC[C@@H]1[C@H](C2)N(C)CC3` [dextromethorphan, morphinan, 3-methoxy-17-methyl-, (9α, 13α, 14α), hydrobromide monohydrate], in data set [3], the “increase in AUC0-12 compared to extensive metabolizers” value is given as around 3.4 fold and the “increase in Cmax compared to extensive metabolizers” value is on record as around 3 fold. In data set [4] (29 healthy volunteers, paroxetine with the subject combination), the “change of overall exposure on co-administration of paroxetine” value came to 2.5 fold. Also, the “reduction of clearance vs matched controls with normal renal function” value in data set [5] was 50%. Besides, the “increase of exposure vs matched controls with normal renal function” value in data set [5] (7 subjects vs 6 controls) is recorded as “approximately 2 fold”. Besides, the “increase of mean elimination half-life compared to dextromethorphan given without bupropion” value in data set [6] (8 days of administration of the subject combination, extensive metabolizers) is listed as “approximately 3 fold”. In addition, the “changes in AUC and Cmax with dose (dose proportionality)” value in data set [6] (varying doses of bupropion (75 to 150 mg)) was “less than dose-proportional”. For the same compound, the “changes in AUC and Cmax with dose (dose proportionality)” value in data set [6] (varying doses of dextromethorphan (30 to 60 mg)) was “greater than dose-proportional”. In addition, the mean elimination half-life in data set [6] (subject combination) was determined as 22 h. Besides, in data set [7], the “increase in AUC0-12 (GMR vs matched healthy subjects)” value came out at 2.21 fold and the “increase in Cmax (GMR vs matched healthy subjects)” value is 2.10 fold.
Take `Fc1ccc([C@@H]2CCNC[C@H]2COc2ccc3c(c2)OCO3)cc1` [paroxetine]: the “increase of overall exposure of paroxetine when co-administered with the subject combination” value in data set [4] (human, in vivo) is listed as 1.2 fold.
